# US20210008176A1, “COMPOSITIONS COMPRISING SULFORAPHANE OR A SULFORAPHANE PRECURSOR AND MAGNESIUM” (NUTRAMAX LABORATORIES, INC., priority 2012, published 2021)
# Key:
# [1] = test system: monocyte chemoattractant protein (MCP-1); details: RAW cells, 1μg/mL LPS 30 minutes, then 24 hours treatment; 0.5 μM SFN, 2.5 mM MgSO4, or both
# Description: The following study was conducted to determine the effect of the combination of sulforaphane and magnesium sulfate (MgSO4) on expression of monocyte chemoattractant protein (MCP-1), which is a mediator of inflammation. MCP-1 is chemokine which attracts monocytes, macrophages, and lymphocytes to sites of inflammation. A reduction in MCP-1 is beneficial for the health of endothelial cells which line the cardiovascular system.
# In the study, RAW cells were activated with 1μg/mL lipopolysaccharide (LPS) for 30 minutes to stimulate the induction of MCP-1 gene expression. Following LPS treatment, the cells were treated with one of the following: (i) DMSO (vehicle control), (ii) 0.5 μM SFN, (iii) 2.5 mM MgSO4, or (iv) the combination of 0.5 μM SFN and 2.5 mM MgSO4. After treatment for 24 hours, the MCP-1 levels were assessed via quantitative RT-PCR.
# [2] = test system: myrosinase; experiment: Equimolar conversion of glucoraphanin to sulforaphane by myrosinase with and without ascorbic acid; type: biochemical, broccoli; details: control sample, without ascorbic acid
# Description: A two-part experiment was conducted to further elucidate the role of ascorbic acid in modulating myrosinase activity. […] A control sample contained no ascorbic acid, and the enzymatic conversion proceeded unassisted by a co-factor. PART 1. […] PART 2. While keeping the amount of broccoli seed extract fixed at 250 mg, the concentration of ascorbic acid was varied from 0.4 mmol/Liter to 3.8 mmol/Liter.
# [3] = test system: broccoli sprout-derived myrosinase; experiment: Consumption of glucoraphanin by myrosinase as a function of ascorbic acid concentration; type: biochemical; details: for glucoraphanin (GR) content: 38° C.; for Slope (rate of glucoraphanin consumption): linear regression 0-60 min
# Description: Consumption of Glucoraphanin as a Function of the Ascorbic Acid Concentration.
# About 250 mg of broccoli seed extract containing about 12% (w/w) glucoraphanin were subjected to hydrolysis by a fixed concentration of broccoli sprout-derived myrosinase in the presence of variable concentration of ascorbic acid, ranging from 0 to 600 μmoles/Liter. The reaction mixtures were thermostated at 38° C.; aliquots were withdrawn every 15 minutes for 60 minutes, and concentration of glucoraphanin determined chromatographically. The rate of glucoraphanin consumption was interpreted as the rate its conversion to sulforaphane. Graphical representation of glucoraphanin content reduction as a function of increasing ascorbic acid concentration results in a series of linear plots; the slopes of the linear regression lines reflect the rate of glucoraphanin consumption, in μmoles/minute. It is apparent that in the presence of 600 μmoles/Liter concentration of ascorbic acid, the reaction rate increased 13-fold relative to that which proceeded in the absence of modulatory effects of ascorbic acid.
compound,measurement,setting,value
"C[S+]([O-])CCCCN=C=S (stereo not drawn) [sulforaphane, 1-isothiocyanato-4-methylsulfinylbutane]",reduction in MCP-1 levels,[1],approximately 29%
"C[S+]([O-])CCCC/C(=N\OS(=O)(=O)O)S[C@@H]1O[C@H](CO)[C@@H](O)[C@H](O)[C@H]1O (stereo partly drawn) [GR, 4-methylsulfinylbutyl glucosinolate]",stoichiometry of glucoraphanin conversion to sulforaphane,[2],equimolar conversion
same,glucoraphanin (GR) content,"[3]; ascorbic acid 0 μM, 0 min",93.36 µmol
same,glucoraphanin (GR) content,"[3]; ascorbic acid 0 μM, 15 min",92.24 µmol
same,glucoraphanin (GR) content,"[3]; ascorbic acid 0 μM, 30 min",90.71 µmol
same,glucoraphanin (GR) content,"[3]; ascorbic acid 0 μM, 45 min",89.44 µmol
same,glucoraphanin (GR) content,"[3]; ascorbic acid 0 μM, 60 min",87.79 µmol
same,Slope (rate of glucoraphanin consumption),[3]; ascorbic acid 0 μM,-0.09293 µmol/min
same,glucoraphanin (GR) content,"[3]; ascorbic acid 50 μM, 0 min",93.36 µmol
same,glucoraphanin (GR) content,"[3]; ascorbic acid 50 μM, 15 min",89.20 µmol
same,glucoraphanin (GR) content,"[3]; ascorbic acid 50 μM, 30 min",84.24 µmol
same,glucoraphanin (GR) content,"[3]; ascorbic acid 50 μM, 45 min",80.30 µmol
same,glucoraphanin (GR) content,"[3]; ascorbic acid 50 μM, 60 min",76.36 µmol
same,Slope (rate of glucoraphanin consumption),[3]; ascorbic acid 50 μM,-0.286 µmol/min
same,glucoraphanin (GR) content,"[3]; ascorbic acid 125 μM, 0 min",93.36 µmol
same,glucoraphanin (GR) content,"[3]; ascorbic acid 125 μM, 15 min",84.52 µmol
same,glucoraphanin (GR) content,"[3]; ascorbic acid 125 μM, 30 min",75.92 µmol
same,glucoraphanin (GR) content,"[3]; ascorbic acid 125 μM, 45 min",68.09 µmol
same,glucoraphanin (GR) content,"[3]; ascorbic acid 125 μM, 60 min",59.41 µmol
same,Slope (rate of glucoraphanin consumption),[3]; ascorbic acid 125 μM,-0.5622 µmol/min
same,glucoraphanin (GR) content,"[3]; ascorbic acid 250 μM Filtered, 0 min",93.36 µmol
same,glucoraphanin (GR) content,"[3]; ascorbic acid 250 μM Filtered, 15 min",86.31 µmol
same,glucoraphanin (GR) content,"[3]; ascorbic acid 250 μM Filtered, 30 min",79.44 µmol
same,glucoraphanin (GR) content,"[3]; ascorbic acid 250 μM Filtered, 45 min",71.94 µmol
same,glucoraphanin (GR) content,"[3]; ascorbic acid 250 μM Filtered, 60 min",65.18 µmol
same,Slope (rate of glucoraphanin consumption),[3]; ascorbic acid 250 μM Filtered,-0.4714 µmol/min
same,glucoraphanin (GR) content,"[3]; ascorbic acid 250 μM, 0 min",93.36 µmol
same,glucoraphanin (GR) content,"[3]; ascorbic acid 250 μM, 15 min",80.95 µmol
same,glucoraphanin (GR) content,"[3]; ascorbic acid 250 μM, 30 min",69.06 µmol
same,glucoraphanin (GR) content,"[3]; ascorbic acid 250 μM, 45 min",57.63 µmol
same,glucoraphanin (GR) content,"[3]; ascorbic acid 250 μM, 60 min",45.76 µmol
same,Slope (rate of glucoraphanin consumption),[3]; ascorbic acid 250 μM,-0.7901 µmol/min
same,glucoraphanin (GR) content,"[3]; ascorbic acid 400 μM, 0 min",93.36 µmol
same,glucoraphanin (GR) content,"[3]; ascorbic acid 400 μM, 15 min",78.32 µmol
same,glucoraphanin (GR) content,"[3]; ascorbic acid 400 μM, 30 min",62.78 µmol
same,glucoraphanin (GR) content,"[3]; ascorbic acid 400 μM, 45 min",47.67 µmol
same,glucoraphanin (GR) content,"[3]; ascorbic acid 400 μM, 60 min",33.15 µmol
same,Slope (rate of glucoraphanin consumption),[3]; ascorbic acid 400 μM,-1.007 µmol/min
same,glucoraphanin (GR) content,"[3]; ascorbic acid 600 μM, 0 min",93.36 µmol
same,glucoraphanin (GR) content,"[3]; ascorbic acid 600 μM, 15 min",75.02 µmol
same,glucoraphanin (GR) content,"[3]; ascorbic acid 600 μM, 30 min",55.66 µmol
same,glucoraphanin (GR) content,"[3]; ascorbic acid 600 μM, 45 min",37.50 µmol
same,glucoraphanin (GR) content,"[3]; ascorbic acid 600 μM, 60 min",22.09 µmol
same,Slope (rate of glucoraphanin consumption),[3]; ascorbic acid 600 μM,-1.2 µmol/min
O=S(=O)([O-])[O-].[Mg+2] [magnesium sulfate],reduction in MCP-1 levels,[1],approximately 16%
